target: T1, P236L viral reverse transcriptase (Human immunodeficiency virus type 1 group M subtype B, UniProt P04585, P823L); assay: inhibition of viral reverse transcriptase (P236L), cell free assay; type: biochemical; details: 30 minutes at 37° C., read-out: IC50 (Table I, P236L)
T1 construct: P236L viral reverse transcriptase is obtained by PNAS 90: 4713-4717 (1993); made in house
Source text: The utility of the pyrimidine-thioalkyl and alkylether anti-AIDS compounds of Formula IA of this invention can be determined by their ability to inhibit viral reverse transcriptase, an enzyme essential for human immunodeficiency virus replication. This enzyme has characteristics which differentiate it from other known cellular polymerases and it is a unique enzyme which is not found in uninfected cells. Viral reverse transcriptase (Wild Type) is found in extracts from bacterial clones prepared according to the procedure described in AIDS Virus Reverse Transcriptase defined by high level expression in Escherichia coli, EMBO J. 6:3133-3137 (1987). P236L viral reverse transcriptase is obtained by PNAS 90: 4713-4717 (1993). Inhibition of this enzyme is determined in a cell free assay which measures the level of radioactive precursors incorporated into DNA. Extracts prepared according to the procedure of Science, 1125-1129 (1981) are incubated in a mixture of inhibitor, 20 mM dithiothreitol, 60 mM sodium chloride, 0.05% NP-40, 10 mM magnesium chloride, 50 mM Tris pH 8.3, 10 μM [^35 S]-labeled deoxynuleoside-5'-triphosphate, 10 μg/ml RNA template (poly rC or poly rG) and 5 μg/ml DNA primer (oligo dG or oligo dT) for 30 minutes at 37° C. Incorporation of radio-labeled percursor is determined by spotting aliquots of the reaction mixture on DE81 paper, washing the papers to remove unincorporated percursor, drying and determining counts. The results (IC50 means the concentration, in μM of drug, required to inhibit the reverse transcriptase activity (P236L and Wild Type) to the extent of 50%) of various assay(s) are combined and reported as % inhibition and/or IC50 (calculated) in Table I (P236L) and Table II (Wild Type).

Compound | IC50 [nM]
Cc1ccnc(CSc2nc(N)c(Br)c(Cl)n2)c1 [Example 165, 4-amino-5-bromo-6-chloro-2-[2-(4-methyl)pyridylmethylthio]-pyrimidine] | 50
CC(C)c1ccnc(CSc2nc(N)c(Br)c(Cl)n2)c1 [Example 166, 4-amino-5-bromo-6-chloro-2-[2-(4-isopropyl)pyridylmethylthio]-pyrimidine] | 20
Nc1cc(Cl)nc(SCc2c(Cl)cccc2Cl)n1 [Example 167, 4-amino-6-chloro-2-(2,6-dichlorophenyl)methylthio-pyrimidine] | 5000
Nc1cc(Cl)nc(SCc2ccc3c(c2)CCO3)n1 [Example 168, 4-Amino-6-chloro-2-[(2,3-dihydrobenzofuran-5-ylmethyl)thio]pyrimidine] | 50
Nc1cc(Cl)nc(SCC2=Cc3ccccc3CC2)n1 [Example 171, 4-Amino-6-chloro-2-[[(3,4-dihydro-1-naphthalen-2-yl)methyl]thio]-pyrimidine] | 1000
Cc1cncc(CSc2nc(N)cc(Cl)n2)n1 [Example 173, 4-Amino-6-chloro-2-[(6-methylpyrazin-2-ylmethyl)thio]pyrimidine] | 10000
Cc1cc(CSc2nc(N)cc(Cl)n2)no1 [Example 174, 4-Amino-6-chloro-2-[(5-methylisoxazol-3-ylmethyl)thio]pyrimidine] | 500
Cc1cnc(CSc2nc(N)cc(Cl)n2)cn1 [Example 175, 4-Amino-6-chloro-2-[(5-methylpyrazin-2-ylmethyl)thio]pyrimidine] | 8000
Cn1ccnc1CSc1nc(N)cc(Cl)n1 [Example 176, 4-Amino-6-chloro-2-[(1-methylimidazol-2-ylmethyl)thio]pyrimidine] | 25000
Nc1cc(Cl)nc(SCc2ccc3ncccc3c2)n1 [Example 178, 4-Amino-6-chloro-2-[(quinolin-6-ylmethyl)thio]pyrimidine] | 500
Nc1cc(Cl)nc(SCc2cnc3ccccc3n2)n1 [Example 179, 4-Amino-6-chloro-2-[(quinoxalin-2-ylmethyl)thio]pyrimidine] | 500
Nc1cc(Cl)nc(SCc2ccnc3ccccc23)n1 [Example 181, 4-Amino-6-chloro-2-[(quinolin-4-ylmethyl)thio]pyrimidine] | 1000
Nc1cc(Cl)nc(SCc2cc3ccccc3cn2)n1 [Example 182, 4-Amino-6-chloro-2-[(isoquinolin-3-ylmethyl)thio]pyrimidine] | 20
Nc1cc(Cl)nc(SCc2cccc3ncccc23)n1 [Example 183, 4-Amino-6-chloro-2-[(quinolin-5-ylmethyl)thio]pyrimidine] | 40
Nc1cc(Cl)nc(SCc2ccc3cccnc3c2)n1 [Example 184, 4-Amino-6-chloro-2-[(quinolin-7-ylmethyl)thio]pyrimidine] | 3000
Nc1cc(Cl)nc(SCc2ccc3c(c2)OCO3)n1 [Example 186, 4-Amino-6-chloro-2-[(piperon-5-ylmethyl)thio]pyrimidine] | 500
Nc1cc(Cl)nc(SCC2=CCCc3ccccc32)n1 [Example 187, 4-Amino-6-chloro-2-[[(3,4-dihydro-1-naphthalenyl)methyl]thio]pyrimidine] | 600
Nc1nc(SCc2cc(Cl)ccn2)nc(Cl)c1F [Example 192] | 20

same assay, conditions: IC50 (Table I, P236L), 30 minutes at 37° C.

Compound | IC50 [nM]
Nc1cc(Cl)nc(SCc2cccc3cccnc23)n1 [Example 180, 4-Amino-6-chloro-2-[(quinolin-8-ylmethyl)thio]pyrimidine] | 50
COC(=O)c1ccc(CSc2nc(N)cc(Cl)n2)nc1 [Example 188, 4-amino-6-chloro-2[2-(5-carbomethyoxy)pyridylmethylthio]pyrimidine] | 50000
CNc1cc(C#N)nc(SCc2ccc3ccccc3c2)n1 [Example 288, 6-methylamino-2-(2-naphthylmethyl)thio-4-pyrimidine carbonitrile] | 50000
